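All cell lines were grown in 96-well plates and treated with compound for 48 hours. TGI: total growth inhibition.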
Each compound was assayed on HCC-2998 colon (assay: NCI tumour cell line growth inhibition, 48 h).

SMILES | TGI [µM]
CCOC(=O)CN=C1NNS(=O)(=O)c2ccccc21 | > 100
Cc1ccc(N=Nc2c(C)c(C#N)c(=S)n(C3OC(CO)C(O)C(O)C3O)c2C)cc1 (centres undefined) | 58.5
COc1cc(/C=C2\N=C(c3ccccc3)N(c3nc4c(OC)ccc(OC)c4s3)C2=O)ccc1O | > 100
O=C(Cc1ccccc1)N/N=C/c1ccccc1O | > 100
CC(C)=CC(=O)C[C@H]1C(=O)O[C@@H]2C[C@H]3C(C)=CC(=O)[C@@H](O)[C@]3(C)[C@H]3[C@@]4(O)OC[C@]32[C@@H]1[C@@H](C)[C@H]4O | 0.368
COC(=O)C1C(=O)C=CN([C@H](C)c2ccccc2)[C@@H]1Cc1ccc(OC)c(OCc2ccccc2)c1I (some centres undefined) | 32.5
C/C=C(/C)C(=O)O[C@H]1C[C@@H]2[C@@H](O)c3occ(C)c3C[C@]2(C)[C@@H](C)C1 | 34
Cc1cc(C)n(C2OC(CO)C(O)C(O)C2O)c(=S)c1C#N (centres undefined) | > 100
COC(=O)C(COC(C)=O)NC(=O)/C=C/c1ccc(O)c(OC(C)=O)c1 (centres undefined) | > 100
O=c1[nH]nc(Cc2ccccc2)[nH]1 | > 100
CCOP(=O)(CN1CCNCCNCC1)OCC | > 100
CN(/N=C/c1ccc(OCc2cccc(COc3ccc(C=O)cc3)n2)cc1)c1cnn(-c2ccc(Cl)cc2Cl)c(=O)c1Cl | > 100
CC(C)Oc1ccc2c(c1)OCC1Cc3ccccc3OC21 (centres undefined) | > 100
O=C1C(Cl)C(c2cccc(Cl)c2)N1c1ccc(-n2c(=S)[nH]c3ccccc3c2=O)cc1 (centres undefined) | 37.8
COc1cc2c(cc1OC)CCc1cc(OC)c(OC)cc1CC2 | > 100
c1csc(-c2cc(-c3cccs3)c(-c3ccsc3)s2)c1 | > 100
NC(CCC(=O)O)C(=O)N1CCN(c2nc(N3CCCC3)c3nc(Cl)c(NCc4ccccc4)nc3n2)CC1 (centres undefined) | 24.9
COC(=O)C(NC(=O)c1ccccc1)c1ccco1 (centres undefined) | > 100
c1ccc2c(c1)nc1n2CNC1 | > 100

Each compound was assayed on NCI-H226 lung (assay: NCI tumour cell line growth inhibition, 48 h).

SMILES | TGI [µM]
CCOC(=O)CN=C1NNS(=O)(=O)c2ccccc21 | > 100
O=C(Cc1ccccc1)N/N=C/c1ccccc1O | 81.5
CC(C)=CC(=O)C[C@H]1C(=O)O[C@@H]2C[C@H]3C(C)=CC(=O)[C@@H](O)[C@]3(C)[C@H]3[C@@]4(O)OC[C@]32[C@@H]1[C@@H](C)[C@H]4O | < 0.0156
COC(=O)C1C(=O)C=CN([C@H](C)c2ccccc2)[C@@H]1Cc1ccc(OC)c(OCc2ccccc2)c1I (some centres undefined) | 32.7
CN(C)CCCN1c2ccccc2Sc2cnccc21 | > 100
C/C=C(/C)C(=O)O[C@H]1C[C@@H]2[C@@H](O)c3occ(C)c3C[C@]2(C)[C@@H](C)C1 | 29.2
Cc1cc(C)n(C2OC(CO)C(O)C(O)C2O)c(=S)c1C#N (centres undefined) | > 100
COC(=O)C(COC(C)=O)NC(=O)/C=C/c1ccc(O)c(OC(C)=O)c1 (centres undefined) | > 100
O=c1[nH]nc(Cc2ccccc2)[nH]1 | > 100
CCOP(=O)(CN1CCNCCNCC1)OCC | > 100
CN(/N=C/c1ccc(OCc2cccc(COc3ccc(C=O)cc3)n2)cc1)c1cnn(-c2ccc(Cl)cc2Cl)c(=O)c1Cl | > 100
CC(C)Oc1ccc2c(c1)OCC1Cc3ccccc3OC21 (centres undefined) | > 100
O=C1C(Cl)C(c2cccc(Cl)c2)N1c1ccc(-n2c(=S)[nH]c3ccccc3c2=O)cc1 (centres undefined) | 73.8
COc1cc2c(cc1OC)CCc1cc(OC)c(OC)cc1CC2 | > 100
c1csc(-c2cc(-c3cccs3)c(-c3ccsc3)s2)c1 | > 100
COc1ccc(N2C(=O)C3ON(C(C(N)=O)c4ccccc4)C(c4cc5ccccc5c5ccccc45)C3C2=O)cc1 (centres undefined) | > 50
COc1ccccc1N1CCN(CCCN2/C(=C(\O)c3ccccc3)C(=O)c3c(C)cc(C)nc3S2(=O)=O)CC1 | 87.9
NC(CCC(=O)O)C(=O)N1CCN(c2nc(N3CCCC3)c3nc(Cl)c(NCc4ccccc4)nc3n2)CC1 (centres undefined) | 32.9
COC(=O)C(NC(=O)c1ccccc1)c1ccco1 (centres undefined) | > 100
CN1C2CCC1CC(CCNC(c1ccccc1)c1ccccc1)C2 (centres undefined) | > 100
CC1ON2CCCC2[C@H]1C(=O)N1C2CC3CCC2(CS1(=O)=O)C3(C)C (some centres undefined) | > 100
NNc1nncc2n[nH]nc12 | > 100

What follows are compounds tested on SNB-75 CNS (assay: NCI tumour cell line growth inhibition, 48 h).

SMILES | TGI [µM]
CCOC(=O)CN=C1NNS(=O)(=O)c2ccccc21 | > 100
Cc1ccc(N=Nc2c(C)c(C#N)c(=S)n(C3OC(CO)C(O)C(O)C3O)c2C)cc1 (centres undefined) | 73.2
COc1cc(/C=C2\N=C(c3ccccc3)N(c3nc4c(OC)ccc(OC)c4s3)C2=O)ccc1O | 93.2
O=C(Cc1ccccc1)N/N=C/c1ccccc1O | 59.8
CC(C)=CC(=O)C[C@H]1C(=O)O[C@@H]2C[C@H]3C(C)=CC(=O)[C@@H](O)[C@]3(C)[C@H]3[C@@]4(O)OC[C@]32[C@@H]1[C@@H](C)[C@H]4O | 0.103
CN(C)CCCN1c2ccccc2Sc2cnccc21 | > 100
Cc1cc(C)n(C2OC(CO)C(O)C(O)C2O)c(=S)c1C#N (centres undefined) | > 100
COC(=O)C(COC(C)=O)NC(=O)/C=C/c1ccc(O)c(OC(C)=O)c1 (centres undefined) | > 100
O=c1[nH]nc(Cc2ccccc2)[nH]1 | > 100
CCOP(=O)(CN1CCNCCNCC1)OCC | > 100
CN(/N=C/c1ccc(OCc2cccc(COc3ccc(C=O)cc3)n2)cc1)c1cnn(-c2ccc(Cl)cc2Cl)c(=O)c1Cl | 39.9
COc1cc2c(cc1OC)CCc1cc(OC)c(OC)cc1CC2 | > 100
c1csc(-c2cc(-c3cccs3)c(-c3ccsc3)s2)c1 | > 100
COc1ccc(N2C(=O)C3ON(C(C(N)=O)c4ccccc4)C(c4cc5ccccc5c5ccccc45)C3C2=O)cc1 (centres undefined) | > 50
COc1ccccc1N1CCN(CCCN2/C(=C(\O)c3ccccc3)C(=O)c3c(C)cc(C)nc3S2(=O)=O)CC1 | 30.8
NC(CCC(=O)O)C(=O)N1CCN(c2nc(N3CCCC3)c3nc(Cl)c(NCc4ccccc4)nc3n2)CC1 (centres undefined) | 25.3
COC(=O)C(NC(=O)c1ccccc1)c1ccco1 (centres undefined) | > 100
CN1C2CCC1CC(CCNC(c1ccccc1)c1ccccc1)C2 (centres undefined) | > 100
c1ccc2c(c1)nc1n2CNC1 | > 100
CC1ON2CCCC2[C@H]1C(=O)N1C2CC3CCC2(CS1(=O)=O)C3(C)C (some centres undefined) | > 100
NNc1nncc2n[nH]nc12 | 85.5

Each compound was assayed on SN12C renal (assay: NCI tumour cell line growth inhibition, 48 h).

SMILES | TGI [µM]
CCOC(=O)CN=C1NNS(=O)(=O)c2ccccc21 | > 100
Cc1ccc(N=Nc2c(C)c(C#N)c(=S)n(C3OC(CO)C(O)C(O)C3O)c2C)cc1 (centres undefined) | 94.2
COc1cc(/C=C2\N=C(c3ccccc3)N(c3nc4c(OC)ccc(OC)c4s3)C2=O)ccc1O | > 100
O=C(Cc1ccccc1)N/N=C/c1ccccc1O | > 100
COC(=O)C1C(=O)C=CN([C@H](C)c2ccccc2)[C@@H]1Cc1ccc(OC)c(OCc2ccccc2)c1I (some centres undefined) | 28.8
CN(C)CCCN1c2ccccc2Sc2cnccc21 | > 100
COc1ccc(C2C3=C(Nc4ncnn42)c2ccccc2OC3c2ccccc2)cc1 (centres undefined) | > 100
C/C=C(/C)C(=O)O[C@H]1C[C@@H]2[C@@H](O)c3occ(C)c3C[C@]2(C)[C@@H](C)C1 | 27.3
Cc1cc(C)n(C2OC(CO)C(O)C(O)C2O)c(=S)c1C#N (centres undefined) | > 100
COC(=O)C(COC(C)=O)NC(=O)/C=C/c1ccc(O)c(OC(C)=O)c1 (centres undefined) | > 100
O=c1[nH]nc(Cc2ccccc2)[nH]1 | > 100
CCOP(=O)(CN1CCNCCNCC1)OCC | > 100
CN(/N=C/c1ccc(OCc2cccc(COc3ccc(C=O)cc3)n2)cc1)c1cnn(-c2ccc(Cl)cc2Cl)c(=O)c1Cl | > 100
CC(C)Oc1ccc2c(c1)OCC1Cc3ccccc3OC21 (centres undefined) | > 100
O=C1C(Cl)C(c2cccc(Cl)c2)N1c1ccc(-n2c(=S)[nH]c3ccccc3c2=O)cc1 (centres undefined) | 31.9
COc1cc2c(cc1OC)CCc1cc(OC)c(OC)cc1CC2 | > 100
c1csc(-c2cc(-c3cccs3)c(-c3ccsc3)s2)c1 | > 100
COc1ccc(N2C(=O)C3ON(C(C(N)=O)c4ccccc4)C(c4cc5ccccc5c5ccccc45)C3C2=O)cc1 (centres undefined) | > 50
COc1ccccc1N1CCN(CCCN2/C(=C(\O)c3ccccc3)C(=O)c3c(C)cc(C)nc3S2(=O)=O)CC1 | > 100
NC(CCC(=O)O)C(=O)N1CCN(c2nc(N3CCCC3)c3nc(Cl)c(NCc4ccccc4)nc3n2)CC1 (centres undefined) | 30.7
COC(=O)C(NC(=O)c1ccccc1)c1ccco1 (centres undefined) | > 100
CN1C2CCC1CC(CCNC(c1ccccc1)c1ccccc1)C2 (centres undefined) | > 100
c1ccc2c(c1)nc1n2CNC1 | > 100
CC1ON2CCCC2[C@H]1C(=O)N1C2CC3CCC2(CS1(=O)=O)C3(C)C (some centres undefined) | > 100
NNc1nncc2n[nH]nc12 | > 100

Each compound was assayed on RXF 393 renal (assay: NCI tumour cell line growth inhibition, 48 h).

SMILES | TGI [µM]
CCOC(=O)CN=C1NNS(=O)(=O)c2ccccc21 | > 100
Cc1ccc(N=Nc2c(C)c(C#N)c(=S)n(C3OC(CO)C(O)C(O)C3O)c2C)cc1 (centres undefined) | 93.6
COc1cc(/C=C2\N=C(c3ccccc3)N(c3nc4c(OC)ccc(OC)c4s3)C2=O)ccc1O | > 100
COC(=O)C1C(=O)C=CN([C@H](C)c2ccccc2)[C@@H]1Cc1ccc(OC)c(OCc2ccccc2)c1I (some centres undefined) | 25.2
CN(C)CCCN1c2ccccc2Sc2cnccc21 | > 100
COc1ccc(C2C3=C(Nc4ncnn42)c2ccccc2OC3c2ccccc2)cc1 (centres undefined) | 48.1
C/C=C(/C)C(=O)O[C@H]1C[C@@H]2[C@@H](O)c3occ(C)c3C[C@]2(C)[C@@H](C)C1 | 28.9
Cc1cc(C)n(C2OC(CO)C(O)C(O)C2O)c(=S)c1C#N (centres undefined) | > 100
O=c1[nH]nc(Cc2ccccc2)[nH]1 | > 100
CN(/N=C/c1ccc(OCc2cccc(COc3ccc(C=O)cc3)n2)cc1)c1cnn(-c2ccc(Cl)cc2Cl)c(=O)c1Cl | 73.2
O=C1C(Cl)C(c2cccc(Cl)c2)N1c1ccc(-n2c(=S)[nH]c3ccccc3c2=O)cc1 (centres undefined) | 29
COc1ccc(N2C(=O)C3ON(C(C(N)=O)c4ccccc4)C(c4cc5ccccc5c5ccccc45)C3C2=O)cc1 (centres undefined) | > 50
COc1ccccc1N1CCN(CCCN2/C(=C(\O)c3ccccc3)C(=O)c3c(C)cc(C)nc3S2(=O)=O)CC1 | > 100
COC(=O)C(NC(=O)c1ccccc1)c1ccco1 (centres undefined) | > 100
CN1C2CCC1CC(CCNC(c1ccccc1)c1ccccc1)C2 (centres undefined) | 39.1
c1ccc2c(c1)nc1n2CNC1 | > 100
CC1ON2CCCC2[C@H]1C(=O)N1C2CC3CCC2(CS1(=O)=O)C3(C)C (some centres undefined) | > 100
NNc1nncc2n[nH]nc12 | > 100

Each compound was assayed on NCI/ADR-RES ovarian (assay: NCI tumour cell line growth inhibition, 48 h).

SMILES | TGI [µM]
CCOC(=O)CN=C1NNS(=O)(=O)c2ccccc21 | > 100
Cc1ccc(N=Nc2c(C)c(C#N)c(=S)n(C3OC(CO)C(O)C(O)C3O)c2C)cc1 (centres undefined) | > 100
COc1cc(/C=C2\N=C(c3ccccc3)N(c3nc4c(OC)ccc(OC)c4s3)C2=O)ccc1O | > 100
O=C(Cc1ccccc1)N/N=C/c1ccccc1O | > 100
CC(C)=CC(=O)C[C@H]1C(=O)O[C@@H]2C[C@H]3C(C)=CC(=O)[C@@H](O)[C@]3(C)[C@H]3[C@@]4(O)OC[C@]32[C@@H]1[C@@H](C)[C@H]4O | 11
COC(=O)C1C(=O)C=CN([C@H](C)c2ccccc2)[C@@H]1Cc1ccc(OC)c(OCc2ccccc2)c1I (some centres undefined) | 42.9
CN(C)CCCN1c2ccccc2Sc2cnccc21 | > 100
COc1ccc(C2C3=C(Nc4ncnn42)c2ccccc2OC3c2ccccc2)cc1 (centres undefined) | > 100
C/C=C(/C)C(=O)O[C@H]1C[C@@H]2[C@@H](O)c3occ(C)c3C[C@]2(C)[C@@H](C)C1 | 28.3
